This is an account of results in US20210251239A1 (priority 2018, published 2021).

Values after ≈ are worked out from the molar mass of the structure shown. Where only a bound is given, the exact number is not on record here.

The subject of assay [1] is Colletotrichum gleosporoides. The assay is described as follows: MTT cell viability assay for determination of IC50 for chemical fungicides. In kind it is cell-based. The settings on record: read-out: IC50 for C. gleosporoides. The procedure: (§1) Assays were carried out in 1.5 mL microcentrifuge tubes. The indicated fungicides were dissolved in DMSO at a stock concentration of 1 mg/mL. Enzymes were desalted into 50 mM MES buffer, pH 6.0 using a 200 mL Sephadex G25 column with 9.5 mL/min flowrate before adding to the germination assay. […] The reaction mixture without fungicide served as a negative inhibition control, and a reaction mixture containing 0.2 mg/mL mannase acid or 20 mg/mL M-PEG (1,2-propanediol) served as a positive inhibition control. The spore germination mixture was incubated at 27° C. for 3 days. At the end of the incubation period, 200 μL of 3-(4,5-dimethylthiazol-2-yl)-2,5-diphenyltetrazolium bromide (MTT) dye was added to the existing 400 μL of assay culture and was incubated for another 3 hr at 27° C. in the dark. The tubes were then centrifuged, and the supernatants were discarded. To the residue left in the tubes, 200 μL of DMSO was added to dissolve the formazan formed by the live fungal cells. The tubes were vortexed and centrifuged again. 100 μL of the supernatant from each tube was transferred into a separate well in a 96-well microtiter plate and absorbance was measured at 540 nm. Inhibition of fungal germination and growth by enzymes was determined relative to the uninhibited control for samples without chemical fungicide, and relative to the 50% inhibited cultures for samples containing each of the chemical fungicides tested.
(§2) Each fungicide was dissolved in DMSO at 1 mg/mL concentration, then added to the germination assay at final concentrations of 0, 0.01, 0.02, 0.04, 0.06, 0.08 mg/mL.
(Formazan colour is commonly taken as a measure of viable cells.)

The subject of assay [2] is Fusarium verticilloides. The description is as above. The settings on record: for IC50: Fusarium, read-out: IC50 for F. verticilloides. In kind it is cell-based. The procedure: as §1, §2
The target in assay [3] is Septoria nodorum. In kind it is cell-based.
The target in assay [4] is Fusarium graminearum. In kind it is cell-based.
Assay [5] addresses Botrytis cinerea.
For assay [6], the target named is Fusarium virguliforme. It counts as cell-based.

As for `OC(Cc1ccccc1Cl)(Cn1nc[nH]c1=S)C1(Cl)CC1` (centres unmarked) [Prothioconazole, prothioconazole], the IC50 (in general, the concentration that inhibits the measured activity by half) in assay [1] stood at 13 µg/mL (≈ 37.8 µM); in assay [2] it was 22 µg/mL (≈ 63.9 µM).

`CON=C(C(=O)OC)c1ccccc1CON=C(C)c1cccc(C(F)(F)F)c1` [Trifloxystrobin, trifloxystrobin]: the results for the IC50 in assay [1] and in assay [2] were 18 µg/mL (≈ 44.1 µM) and 6 µg/mL (≈ 14.7 µM), respectively.

For the compound catalase, in assay [3], the “EC50 Enzyme” value came out at 285 µg/mL and the IC50 plus chemistry is over 500 µg/mL.

On to glucose oxidase, for which the “EC50 Enzyme” value in assay [4], in assay [5], in assay [6] and in assay [3] was under 1 µg/mL each time. In addition, the IC50 plus chemistry in assay [4], in assay [5], in assay [6] and in assay [3] was under 1 µg/mL throughout.

Take lysozyme: in assay [6], the “EC50 Enzyme” value is over 500 µg/mL and the IC50 plus chemistry came out at 2 µg/mL.

With propineb [Antracol (Propineb)], the “IC50 for F. verticilloides” value in assay [2] (50% inhibition of germination and growth, fit IC50) was about 300 µg/mL.
